Measured values published in ChEMBL document CHEMBL4311976, “Design, synthesis and biological evaluation of novel 7H-pyrrolo[2,3-d]pyrimidine derivatives as potential FAK inhibitors and anticancer agents” (Eur J Med Chem, 2019).

Key:
[1] = target: Tyrosine-protein kinase BTK (Homo sapiens) (UniProt Q06187); assay: Inhibition of recombinant full-legth His-tagged human BTK expressed in baculovirus expression system at 0.5 uM using tyr 01 as substrate in presence of ATP at Km concentration after 1 hr by Z'-LYTE assay relative to control
Tyrosine-protein kinase BTK (Homo sapiens), sequence (Q06187 whole entry): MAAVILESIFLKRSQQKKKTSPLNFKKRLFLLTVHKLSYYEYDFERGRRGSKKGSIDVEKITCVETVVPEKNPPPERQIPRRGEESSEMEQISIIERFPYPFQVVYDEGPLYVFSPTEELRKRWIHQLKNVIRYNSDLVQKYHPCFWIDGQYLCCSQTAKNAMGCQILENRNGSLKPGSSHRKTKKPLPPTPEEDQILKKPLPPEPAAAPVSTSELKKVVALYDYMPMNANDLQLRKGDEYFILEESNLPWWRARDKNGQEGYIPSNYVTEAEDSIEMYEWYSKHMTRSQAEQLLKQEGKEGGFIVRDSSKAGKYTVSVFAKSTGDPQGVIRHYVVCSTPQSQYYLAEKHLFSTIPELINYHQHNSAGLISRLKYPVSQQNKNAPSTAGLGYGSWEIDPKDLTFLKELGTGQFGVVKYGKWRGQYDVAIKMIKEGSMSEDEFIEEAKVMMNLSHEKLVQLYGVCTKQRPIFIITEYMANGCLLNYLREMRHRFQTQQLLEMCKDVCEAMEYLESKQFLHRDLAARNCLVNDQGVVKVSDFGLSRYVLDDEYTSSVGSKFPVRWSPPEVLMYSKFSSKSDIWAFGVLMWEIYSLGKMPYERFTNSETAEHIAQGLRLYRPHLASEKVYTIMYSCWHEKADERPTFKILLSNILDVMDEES

[2] = Metabolic stability in rat liver microsomes assessed as compound remaining at 1 uM measured up to 1 hr in presence of NADPH by LC-MS/MS analysis; assay type: ADME, Microsome; conditions: read-out: Stability
A549 [3] = assay: Induction of apoptosis in human A549 cells assessed as early apoptotic cells at 9 uM after 72 hrs by Annexin V-FITC/propidium iodide staining-based flow cytometric analysis (reference value: 2.40%); assay type: functional
[4] = target: ALK tyrosine kinase receptor (Homo sapiens) (UniProt Q9UM73); assay: Inhibition of recombinant human GST-tagged ALK (1058 to 1620 residues) expressed in baculovirus at 0.5 uM using tyr 01 as substrate as substrate in presence of ATP at Km concentration after 1 hr by Z'-LYTE assay relative to control
ALK tyrosine kinase receptor (Homo sapiens), sequence (Q9UM73 19-1620 limits assumed): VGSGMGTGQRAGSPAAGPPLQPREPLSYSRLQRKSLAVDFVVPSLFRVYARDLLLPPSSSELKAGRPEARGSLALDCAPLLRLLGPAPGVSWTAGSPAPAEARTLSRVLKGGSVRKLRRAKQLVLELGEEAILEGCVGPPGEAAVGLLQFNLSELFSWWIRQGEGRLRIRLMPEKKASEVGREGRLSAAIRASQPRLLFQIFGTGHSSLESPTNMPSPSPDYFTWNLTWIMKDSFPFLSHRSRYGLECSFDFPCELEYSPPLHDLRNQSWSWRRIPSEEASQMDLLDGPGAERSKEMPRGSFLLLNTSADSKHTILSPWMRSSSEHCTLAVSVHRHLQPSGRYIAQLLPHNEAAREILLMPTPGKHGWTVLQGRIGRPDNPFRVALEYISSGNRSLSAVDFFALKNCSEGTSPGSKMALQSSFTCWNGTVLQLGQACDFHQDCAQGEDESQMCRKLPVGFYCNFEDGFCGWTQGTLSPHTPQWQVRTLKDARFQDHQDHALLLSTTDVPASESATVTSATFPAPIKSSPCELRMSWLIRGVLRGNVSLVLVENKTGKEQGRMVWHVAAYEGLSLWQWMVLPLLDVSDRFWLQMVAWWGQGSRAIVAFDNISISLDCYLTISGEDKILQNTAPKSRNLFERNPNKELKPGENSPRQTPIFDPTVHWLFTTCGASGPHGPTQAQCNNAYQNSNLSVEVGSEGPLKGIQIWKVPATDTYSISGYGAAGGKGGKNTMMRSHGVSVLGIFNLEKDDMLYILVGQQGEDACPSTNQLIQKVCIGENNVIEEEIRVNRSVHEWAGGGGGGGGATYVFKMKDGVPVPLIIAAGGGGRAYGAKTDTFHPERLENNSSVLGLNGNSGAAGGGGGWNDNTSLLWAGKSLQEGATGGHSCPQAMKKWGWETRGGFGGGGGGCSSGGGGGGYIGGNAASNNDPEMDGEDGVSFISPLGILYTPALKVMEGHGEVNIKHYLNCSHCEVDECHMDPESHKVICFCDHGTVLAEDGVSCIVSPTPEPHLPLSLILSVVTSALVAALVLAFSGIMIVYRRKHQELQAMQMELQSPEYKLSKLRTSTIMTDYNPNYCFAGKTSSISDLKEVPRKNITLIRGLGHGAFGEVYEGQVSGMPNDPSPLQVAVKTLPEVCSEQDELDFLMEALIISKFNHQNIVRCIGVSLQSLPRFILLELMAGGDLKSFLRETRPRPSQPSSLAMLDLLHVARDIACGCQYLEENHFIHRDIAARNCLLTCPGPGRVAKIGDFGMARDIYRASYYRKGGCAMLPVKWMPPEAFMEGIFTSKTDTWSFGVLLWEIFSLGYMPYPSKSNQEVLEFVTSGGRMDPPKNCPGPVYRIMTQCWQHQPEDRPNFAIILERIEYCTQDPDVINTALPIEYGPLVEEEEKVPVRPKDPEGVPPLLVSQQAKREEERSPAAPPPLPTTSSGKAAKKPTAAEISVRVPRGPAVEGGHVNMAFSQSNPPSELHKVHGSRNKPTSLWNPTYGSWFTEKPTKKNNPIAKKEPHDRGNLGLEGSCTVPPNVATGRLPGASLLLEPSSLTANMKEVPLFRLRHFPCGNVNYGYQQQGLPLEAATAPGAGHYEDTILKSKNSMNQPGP

A549 [5] = assay: cells; conditions: Homo sapiens, A549, 72 h
Description: Antiproliferative activity against human A549 cells assessed as reduction in cell viability after 72 hrs by MTT assay

[6] = Metabolic stability in rat liver microsomes assessed as compound remaining at 1 uM measured up to 1 hr in absence of NADPH by LC-MS/MS analysis; assay type: ADME, Microsome; conditions: read-out: Stability
[7] = Metabolic stability in mouse liver microsomes assessed as compound remaining at 1 uM measured up to 1 hr in presence of NADPH by LC-MS/MS analysis; assay type: ADME, Microsome; conditions: read-out: Stability
[8] = Intrinsic clearance in rat liver at 1 uM measured up to 1 hr in presence of NADPH by LC-MS/MS analysis; assay type: ADME, tissue-based
CYP2C9 = CYP2C9 (Homo sapiens, UniProt P11712); assay: Inhibition of CYP2C9 in human pooled liver microsomes at 10 uM using diclofenac as substrate preincubated for 10 mins followed by NADPH addition and measured after 15 mins by LC/MS/MS analysis relative to control; assay type: ADME; conditions: probe diclofenac
CYP2C9, sequence (P11712 whole entry, the tested form may be a part): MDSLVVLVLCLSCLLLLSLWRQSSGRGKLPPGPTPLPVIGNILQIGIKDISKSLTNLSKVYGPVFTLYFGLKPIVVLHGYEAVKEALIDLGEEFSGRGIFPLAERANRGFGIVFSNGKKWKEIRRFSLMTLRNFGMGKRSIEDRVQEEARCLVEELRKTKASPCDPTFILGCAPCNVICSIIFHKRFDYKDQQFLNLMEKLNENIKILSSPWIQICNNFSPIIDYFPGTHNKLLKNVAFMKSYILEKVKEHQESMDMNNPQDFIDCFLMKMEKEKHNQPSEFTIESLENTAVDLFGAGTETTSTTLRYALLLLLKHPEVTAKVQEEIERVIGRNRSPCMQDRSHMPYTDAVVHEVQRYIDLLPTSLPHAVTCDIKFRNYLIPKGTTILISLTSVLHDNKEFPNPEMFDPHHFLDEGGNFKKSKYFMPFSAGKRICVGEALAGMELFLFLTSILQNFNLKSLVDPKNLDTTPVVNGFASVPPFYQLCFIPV

[9] = target: Vascular endothelial growth factor receptor 2 (Homo sapiens) (UniProt P35968); assay: Inhibition of recombinant His-tagged human KDR cytoplasmic domain (789 to 1356 residues) expressed in baculovirus expression system at 0.5 uM using tyr 01 as substrate in presence of ATP at Km concentration after 1 hr by Z'-LYTE assay relative to control
[10] = Intrinsic clearance in rat liver microsomes at 1 uM measured up to 1 hr in presence of NADPH by LC-MS/MS analysis; assay type: ADME, Microsome; conditions: read-out: CLH
[11] = Intrinsic clearance in mouse liver microsomes at 1 uM measured up to 1 hr in presence of NADPH by LC-MS/MS analysis; assay type: ADME, Microsome; conditions: read-out: CLH
A549 [12] = assay: Antimetastatic activity against human A549 cells assessed as reduction in number of cell migration after 72 hrs by crystal violet staining based transwell assay; assay type: functional
[13] = Metabolic stability in human liver microsomes assessed as compound remaining at 1 uM measured up to 1 hr in absence of NADPH by LC-MS/MS analysis; assay type: ADME, Microsome; conditions: read-out: Stability
[14] = target: Tyrosine-protein kinase Lck (Homo sapiens) (UniProt P06239); assay: Inhibition of recombinant full length His-tagged human LCK expressed in baculovirus expression system at 0.5 uM using tyr 02 as substrate in presence of ATP at Km concentration after 1 hr by Z'-LYTE assay relative to control
Tyrosine-protein kinase Lck (Homo sapiens), sequence (P06239 2-509 limits assumed): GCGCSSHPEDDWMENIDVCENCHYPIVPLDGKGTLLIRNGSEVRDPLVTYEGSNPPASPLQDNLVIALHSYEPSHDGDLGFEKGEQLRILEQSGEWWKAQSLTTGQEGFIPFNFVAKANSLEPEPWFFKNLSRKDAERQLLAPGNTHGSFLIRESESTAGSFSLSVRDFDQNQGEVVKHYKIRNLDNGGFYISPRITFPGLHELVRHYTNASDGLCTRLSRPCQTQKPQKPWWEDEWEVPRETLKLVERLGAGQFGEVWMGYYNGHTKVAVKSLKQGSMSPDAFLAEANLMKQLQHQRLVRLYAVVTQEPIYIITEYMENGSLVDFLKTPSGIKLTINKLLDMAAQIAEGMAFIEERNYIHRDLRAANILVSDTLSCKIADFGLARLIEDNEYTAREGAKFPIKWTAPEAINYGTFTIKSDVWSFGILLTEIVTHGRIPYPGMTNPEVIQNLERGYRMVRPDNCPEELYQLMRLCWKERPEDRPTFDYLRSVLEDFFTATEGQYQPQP

[15] = target: Serine/threonine-protein kinase Chk1 (Homo sapiens) (UniProt O14757); assay: Inhibition of recombinant full-legth His-tagged human CHK1 expressed in baculovirus expression system at 0.5 uM using Ser/Thr 19 as substrate in presence of ATP at Km concentration after 1 hr by Z'-LYTE assay relative to control
Serine/threonine-protein kinase Chk1 (Homo sapiens), sequence (O14757 whole entry): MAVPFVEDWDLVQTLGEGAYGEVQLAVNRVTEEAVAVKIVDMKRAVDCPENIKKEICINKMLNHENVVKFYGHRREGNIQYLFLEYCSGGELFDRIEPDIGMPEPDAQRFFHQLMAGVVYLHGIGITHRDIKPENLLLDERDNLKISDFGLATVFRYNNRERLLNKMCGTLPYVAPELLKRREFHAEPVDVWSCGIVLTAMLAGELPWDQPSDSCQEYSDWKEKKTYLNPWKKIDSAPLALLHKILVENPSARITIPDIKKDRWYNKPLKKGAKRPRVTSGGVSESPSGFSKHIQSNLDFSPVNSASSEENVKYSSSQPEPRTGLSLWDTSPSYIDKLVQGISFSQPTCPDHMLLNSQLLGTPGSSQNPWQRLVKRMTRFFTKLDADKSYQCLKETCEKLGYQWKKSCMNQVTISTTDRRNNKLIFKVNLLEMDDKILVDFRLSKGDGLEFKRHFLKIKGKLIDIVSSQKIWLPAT

CYP2D6 = CYP2D6 (Homo sapiens, UniProt P10635); assay: Inhibition of CYP2D6 in human pooled liver microsomes at 10 uM using dextromethorphan as substrate preincubated for 10 mins followed by NADPH addition and measured after 15 mins by LC/MS/MS analysis relative to control; assay type: ADME; conditions: probe dextromethorphan
CYP2D6, sequence (P10635 whole entry): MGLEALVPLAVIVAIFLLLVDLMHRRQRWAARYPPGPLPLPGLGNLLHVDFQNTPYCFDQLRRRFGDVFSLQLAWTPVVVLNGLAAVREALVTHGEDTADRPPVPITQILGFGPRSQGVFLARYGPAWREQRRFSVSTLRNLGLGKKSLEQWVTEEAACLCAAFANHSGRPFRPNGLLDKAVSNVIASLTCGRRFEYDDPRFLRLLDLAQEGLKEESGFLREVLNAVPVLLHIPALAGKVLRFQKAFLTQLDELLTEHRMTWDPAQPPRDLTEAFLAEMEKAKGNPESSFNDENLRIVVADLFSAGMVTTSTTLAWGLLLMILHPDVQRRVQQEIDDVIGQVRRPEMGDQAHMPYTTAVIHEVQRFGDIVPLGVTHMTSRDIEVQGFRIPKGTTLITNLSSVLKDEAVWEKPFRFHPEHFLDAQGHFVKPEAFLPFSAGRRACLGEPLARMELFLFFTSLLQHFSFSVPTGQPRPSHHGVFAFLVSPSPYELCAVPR

A549 [16] = assay: Induction of apoptosis in human A549 cells assessed as late apoptotic cells at 1 uM after 72 hrs by Annexin V-FITC/propidium iodide staining-based flow cytometric analysis (reference value: 1.24%); assay type: functional
[17] = target: Proto-oncogene tyrosine-protein kinase receptor Ret (Homo sapiens) (UniProt P07949); assay: Inhibition of recombinant GST-tagged human RET (658 to 1114 residues) expressed in baculovirus expression system at 0.5 uM using tyr 02 as substrate in presence of ATP at Km concentration after 1 hr by Z'-LYTE assay relative to control
[18] = target: Tyrosine-protein kinase SYK (Homo sapiens) (UniProt P43405); assay: Inhibition of recombinant full length GST-tagged human SYK expressed in baculovirus expression system at 0.5 uM using tyr 02 as substrate in presence of ATP at Km concentration after 1 hr by Z'-LYTE assay relative to control
A549 [19] = assay: Induction of apoptosis in human A549 cells assessed as necrotic cells at 1 uM after 72 hrs by Annexin V-FITC/propidium iodide staining-based flow cytometric analysis (reference value: 1.70%); assay type: functional
A549 [20] = assay: Induction of apoptosis in human A549 cells assessed as late apoptotic cells at 9 uM after 72 hrs by Annexin V-FITC/propidium iodide staining-based flow cytometric analysis (reference value: 1.24%); assay type: functional
[21] = target: Serine/threonine-protein kinase mTOR (Homo sapiens) (UniProt P42345); assay: Inhibition of recombinant GST-tagged human mTOR catalytic domain (1360 to 2549 residues) expressed in baculovirus expression system at 0.5 uM using Ser/Thr 11 as substrate in presence of ATP at Km concentration after 1 hr by Z'-LYTE assay relative to control
[22] = target: Fibroblast growth factor receptor 1 (Homo sapiens) (UniProt P11362); assay: Inhibition of recombinant His-tagged human FGFR1 (308 to 731 resides) expressed in baculovirus expression system at 0.5 uM using tyr 04 as substrate in presence of ATP at Km concentration after 1 hr by Z'-LYTE assay relative to control
Fibroblast growth factor receptor 1 (Homo sapiens), sequence (P11362 22-822 limits assumed): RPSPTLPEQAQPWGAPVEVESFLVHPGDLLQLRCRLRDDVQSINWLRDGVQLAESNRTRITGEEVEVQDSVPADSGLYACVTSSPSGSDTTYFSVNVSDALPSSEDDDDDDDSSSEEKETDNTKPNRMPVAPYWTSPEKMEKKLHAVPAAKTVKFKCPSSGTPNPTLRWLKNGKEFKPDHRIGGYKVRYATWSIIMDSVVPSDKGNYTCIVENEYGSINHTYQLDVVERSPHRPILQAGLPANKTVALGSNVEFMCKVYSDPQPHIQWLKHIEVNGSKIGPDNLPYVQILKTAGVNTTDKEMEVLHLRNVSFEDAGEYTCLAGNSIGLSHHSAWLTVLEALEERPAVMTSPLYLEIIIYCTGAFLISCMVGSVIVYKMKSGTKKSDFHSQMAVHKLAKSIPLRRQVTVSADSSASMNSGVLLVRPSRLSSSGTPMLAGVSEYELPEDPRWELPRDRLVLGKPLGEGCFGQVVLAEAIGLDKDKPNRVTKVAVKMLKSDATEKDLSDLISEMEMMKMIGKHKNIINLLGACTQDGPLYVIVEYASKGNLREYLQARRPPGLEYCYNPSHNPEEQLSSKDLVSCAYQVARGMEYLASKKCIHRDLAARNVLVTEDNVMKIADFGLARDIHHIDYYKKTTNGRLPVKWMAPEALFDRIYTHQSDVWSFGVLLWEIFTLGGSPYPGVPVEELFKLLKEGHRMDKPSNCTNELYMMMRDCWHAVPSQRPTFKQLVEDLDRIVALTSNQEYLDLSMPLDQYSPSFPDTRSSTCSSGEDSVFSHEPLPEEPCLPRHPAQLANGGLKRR

Homo sapiens = species on record: Homo sapiens; assay: Inhibition of recombinant full length His-tagged human PKA catalytic domain expressed in Escherichia coli at 0.5 uM using Ser/Thr 01 as substrate in presence of ATP at Km concentration after 1 hr by Z'-LYTE assay relative to control
[23] = Metabolic stability in mouse liver microsomes assessed as compound remaining at 1 uM measured up to 1 hr in absence of NADPH by LC-MS/MS analysis; assay type: ADME, Microsome; conditions: read-out: Stability
[24] = target: Serine/threonine-protein kinase pim-2 (Homo sapiens) (UniProt Q9P1W9); assay: Inhibition of recombinant full length GST-tagged human PIM2 expressed in baculovirus expression system at 0.5 uM using Ser/Thr 07 as substrate in presence of ATP at Km concentration after 1 hr by Z'-LYTE assay relative to control
[25] = Intrinsic clearance in human liver at 1 uM measured up to 1 hr in presence of NADPH by LC-MS/MS analysis; assay type: ADME, tissue-based

inhibition [1]: 0%
remaining at 1 h, 1 µM [2]: 80.7%
inhibition [4]: 98%
IC50 (A549 [5]): 3.2 µM
remaining at 1 h, 1 µM [6]: 76.3%
remaining at 1 h, 1 µM [7]: 75.4%
CLH [8]: < 17.3 mL/min/kg
inhibition at 0.25 h, 10 µM (CYP2C9): 11.5%
inhibition [9]: 1%
microsomal CLint at 1 µM [10]: < 9.6 µL/min/mg
microsomal CLint at 1 µM [11]: 10.1 µL/min/mg
remaining at 1 h, 1 µM [13]: 81.2%
inhibition [14]: 14%
inhibition [15]: 3%
inhibition at 0.25 h, 10 µM (CYP2D6): 10.7%
inhibition [17]: 10%
inhibition [18]: 73%
inhibition [21]: 0%
inhibition [22]: 6%
inhibition (Homo sapiens): 2%
remaining at 1 h, 1 µM [23]: 78%
inhibition [24]: -3%
CLH [25]: 11.6 mL/min/kg
SMILES: COc1cc(C(=O)NC2CCNCC2)ccc1Nc1nc(Nc2ccccc2P(C)(C)=O)c2cc[nH]c2n1
Activity (A549 [3]): 30.12%
Activity (A549 [12]): Dose-dependent effect
Activity (A549 [16]): 9.62%
Activity (A549 [19]): 6.37%
Activity (A549 [20]): 36.59%
